{
  "source": "patent US20210283253A1",
  "about": "“COMPOSITIONS AND METHODS AGAINST P. AERUGINOSA INFECTIONS” (priority 2017, published 2021)",
  "molecules": {"B1": {"name": "Aerucin: anti-Pseudomonas aeruginosa MEP binding human monoclonal antibody; heavy chain variable SEQ ID NO: 5, light chain variable SEQ ID NO: 7 (antibody, listed as Homo sapiens, V domains shown)", "VH": "QLQLQESGPGLVKPTETLSLTCTVSGGPITYINYYWGWVRQPPGKGLEWIGSIHYDGSTFYNPSLKSRVTISGDTSKSEFSVKLSSVTAADTAVYYCARTYYDASGSPYFDHWGQGTLVTVSS", "VL": "QSVLTQPPSVSAAPGQKVSISCSGSSSNIGNNYVSWYQQLPGTAPNLLIYDNNKRPSGIPDRFSGSKSGTSATLDITGLQSGDEADYYCGTWDSSLSTWVFGGGTKLTVL"}},
  "key": {"Pseudomonas aeruginosa [1]": {"tested_on": "Pseudomonas aeruginosa", "test": "OPA with mAb/antibiotic combinations", "type": "cell-based", "conditions": "90 minutes", "description": "The assay is performed in 96-well microtiter plates with 1% BSA in MEM as the assay diluent. The Leukemia-derived human cell-line HL-60 is used as source of neutrophils. Differentiation of HL-60 cells into neutrophils is induced by addition of 100 mM Dimethylformamide (DMF). Neutrophil morphology is verified by expression of CD11b/Mac-1 marker using FACS. Neutrophils are washed, re-suspended in assay diluent, counted and diluted to a density of 2.5×10^7 cells/ml. Opsonization is mediated by Rabbit sera complement, diluted in assay diluent for a final dilution factor of 1:60. Freshly grown log-phase Pseudomonas strains are re-suspended and diluted in assay diluent to achieve a final ratio of neutrophils to bacteria of 20:1 to 40:1. Dilutions of Aerucin™ from 5 μg/ml to 100 ng/ml are prepared in assay diluent along with a commercial human IgG1 at 5 μg/ml as negative control. Other negative controls include assay mixtures with certain components (complements, neutrophils, antibodies) absent.\nEqual volumes (50 μl) of each component are added to assay wells in the order of: antibodies, complement, neutrophils then bacteria. The components are mixed using a multichannel pipette. Samples at time zero are taken, diluted and plated on agar plates for titer determination. Assay plates are then incubated at 37° C. with shaking for 90 minutes. Samples are again taken, diluted and plated on agar plates.\n(§1) Bacteria titers (CFU/ml) are determined for time-zero and 90-minute samples from colony counts on agar plates after overnight incubation at 37° C. Percent kills are calculated as the difference in titer at 90 minutes from time-zero, divided by the titer at time-zero: […].\nThe assay is performed as described above except that equal volumes (50 μl) of each component are added to assay wells in the order of: antibodies, antibiotic, complement, neutrophils, and then bacteria. Bacteria titers (CFU/ml) are measured directly after mixing all components and after 90 minutes incubation. The read-out of the assay (% kill) is how well the drug or combination of drugs can kill bacteria over these 90 minutes.\nAverages from three independent experiments are presented.\nMinimum inhibitory concentrations (MICs) of the antibiotics used in the OPA assays had been determined upfront (data not shown). […] Data for bactericidal antibiotics Cefepime and Piperacillin was generated with 1×MIC, for Aztreonam (bactericidal) with ½ MIC."}, "P. aeruginosa": {"tested_on": "P. aeruginosa", "conditions": "cited from earlier work"}, "Pseudomonas aeruginosa [2]": {"tested_on": "Pseudomonas aeruginosa", "test": "Opsonic phagocytosis assay (OPA) with Aerucin", "type": "cell-based", "description": "FIG. 3. […] The opsonic phagocytosis assay (OPA) measures potency of antibodies based on the ability to initiate and mediate destruction of their specific targets by neutrophils. The assay utilizes purified complement from goat, rabbit, guinea pig or human sera, and neutrophils either isolated from whole blood or from differentiation of parental cell lines. Various concentrations of the antibody of interest, along with controls, are mixed with antigens. Complement serum and neutrophils are then added at certain ratios. After incubation to allow phagocytosis to occur, fractions of remaining antigens are then quantified by plating (bacteria) on agar plates to enumerate bacterial colonies remaining from the titer that was used at the start of the assay reaction. […]\nThe assay is performed in 96-well microtiter plates with 1% BSA in MEM as the assay diluent. […] Neutrophils are washed, re-suspended in assay diluent, counted and diluted to a density of 2.5×10^7 cells/ml. […]\nas §1"}, "[3]": {"conditions": "4 μg/ml antibiotic alone (Cefepime 1× MIC, Aztreonam ½ MIC)"}},
  "note": "“Also recorded” adds a separate entry of the source.",
  "data": [
    {"molecule": "C[C@H]1[C@H](NC(=O)/C(=N\\OC(C)(C)C(=O)O)c2csc(N)n2)C(=O)N1S(=O)(=O)O", "note": "[Aztreonam]", "values": [
      {"measurement": "% Kill", "setting": "Pseudomonas aeruginosa [1]; [3]", "result": 60, "unit": "%"}
    ]},
    {"molecule": "CO/N=C(\\C(=O)N[C@@H]1C(=O)N2C(C(=O)[O-])=C(C[N+]3(C)CCCC3)CS[C@H]12)c1csc(N)n1", "note": "[Cefepime]", "values": [
      {"measurement": "% Kill", "setting": "Pseudomonas aeruginosa [1]; [3]", "result": 40, "unit": "%"}
    ]},
    {"molecule": "O=C(O)c1cn(C2CC2)c2cc(N3CCNCC3)c(F)cc2c1=O", "note": "[Ciprofloxacin]", "values": [
      {"measurement": "% Kill", "setting": "Pseudomonas aeruginosa [1]; 0.5 μg/ml Ciprofloxacin alone (2× MIC)", "result": "does not show bacterial killing"}
    ]},
    {"molecule": "CCN1CCN(C(=O)N[C@@H](C(=O)N[C@@H]2C(=O)N3[C@@H]2SC(C)(C)[C@@H]3C(=O)O)c2ccccc2)C(=O)C1=O", "note": "[Piperacillin]", "values": [
      {"measurement": "% Kill", "setting": "Pseudomonas aeruginosa [1]; 8 μg/ml Piperacillin alone (1× MIC)", "result": "~40", "unit": "%"}
    ]},
    {"molecule": "Colistin", "values": [
      {"measurement": "% Kill", "setting": "Pseudomonas aeruginosa [1]; 2 μg/ml Colistin alone (2× MIC)", "result": "~20", "unit": "%"}
    ]},
    {"molecule": "Panobacumab: anti-P. aeruginosa serotype 011 lipopolysaccharide monoclonal antibody", "values": [
      {"measurement": "activity on a meropenem resistant P. aeruginosa strain", "setting": "P. aeruginosa; meropenem resistant strain", "result": "retained activity"},
      {"measurement": "bacterial clearance from the lung", "setting": "P. aeruginosa; neutropenic host", "result": "enhanced bacterial clearance"},
      {"measurement": "lung inflammation", "setting": "P. aeruginosa; neutropenic host", "result": "significantly reduced lung inflammation"}
    ]},
    {"molecule": "B1", "values": [
      {"measurement": "opsonic phagocytosis: killing over negative controls", "setting": "Pseudomonas aeruginosa [2]; Aerucin 5 μg/ml to 100 ng/ml, rabbit complement, HL-60 neutrophils, 90 minutes", "result": "significant increase in killing over negative controls in a dose-dependent manner"},
      {"measurement": "killing of P. aeruginosa in the absence of complement", "setting": "Pseudomonas aeruginosa [2]; OPA without complement, a number of Pa strains (Pa 2410, Pa 27853, Pa PGO2338)", "result": "killing of P. aeruginosa bacteria in the absence of complement; also recorded: killing was observed in the absence of complement"},
      {"measurement": "% Kill", "setting": "Pseudomonas aeruginosa [1]; 50 ng/ml Aerucin alone", "result": "around 5%"}
    ]}
  ]
}
